# How the values were obtained:
# [1] = Toxicokinetics of abiraterone decanoate and abiraterone in 13-week study; format: in vivo, cynomolgus monkeys; settings: for AUC(0-t) / Cmax: male, cynomolgus monkey, in vivo, im; for AUC(0-t): Abiraterone Decanoate plasma AUC0-[…] (mean); for Cmax: Abiraterone Decanoate plasma Cmax (mean)
# Protocol: Toxicokinetic parameters were obtained for each animal on Days 1, 29, and 71. […] A single 144-hour sample was collected outside of the allowable window for timed collections from one Animal on Day 29 and the actual time for this time point was used in the toxicokinetic data analysis. Nominal time was used for graphic representation and concentration table generation. For each animal, the following toxicokinetic parameters were determined: maximum observed plasma concentration (Cmax), time of maximum observed plasma concentration (Tmax), and area under the plasma concentration-time curve (AUC).
# [2] = molecular target: T1, CYP17 (Rattus norvegicus, UniProt P11715); test: Serum steroid levels after single IV or IM injection in tissue uptake study; format: in vivo, strain CD [Crl:CD(SD)]; settings: rats
# T1 construct: endogenous in cells; host or cells: live CD [Crl:CD(SD)] rats (in vivo)
# T1 sequence (P11715 1-507): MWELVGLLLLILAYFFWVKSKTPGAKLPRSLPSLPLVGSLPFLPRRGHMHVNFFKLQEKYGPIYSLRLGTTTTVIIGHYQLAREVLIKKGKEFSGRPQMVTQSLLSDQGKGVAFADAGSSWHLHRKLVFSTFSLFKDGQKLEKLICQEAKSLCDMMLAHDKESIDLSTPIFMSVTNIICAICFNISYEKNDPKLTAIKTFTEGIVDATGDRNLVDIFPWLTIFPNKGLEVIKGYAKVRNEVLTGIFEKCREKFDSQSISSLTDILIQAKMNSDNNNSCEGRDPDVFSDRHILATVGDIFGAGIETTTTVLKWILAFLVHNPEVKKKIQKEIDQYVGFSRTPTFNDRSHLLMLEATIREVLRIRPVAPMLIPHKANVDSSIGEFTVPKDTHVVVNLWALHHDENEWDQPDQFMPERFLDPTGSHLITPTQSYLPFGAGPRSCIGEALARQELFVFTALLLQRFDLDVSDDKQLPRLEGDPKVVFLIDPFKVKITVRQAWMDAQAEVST
# Text: Vehicle for IM injection: Corn oil with 10% benzyl alcohol (w/v) and 20% benzyl benzoate (w/v). The study followed the protocols described below.
# For serum steroid analysis, blood samples were collected from animals in each study group at predose and at terminal necropsy according to the following protocol. Animals were designated for 72 hr and 168 hr necropsy, the animals will be fasted overnight before scheduled blood collections. Plasma samples will be used for ACTH level analysis. Serum samples will be used for LH level analysis and steroid level analysis. Plasma samples will also be collected at various time points and be analyzed for abiraterone decanoate and abiraterone. Representative samples of tissues will be collected and snap frozen and analyzed. Lung, Liver, Adrenal glands, Prostate, Testes (Sample 1 and 2) and lymph nodes tissues will be collected. Lymph node(s) draining administration site(s): Inguinal (Groups 1-4) and Iliac (Groups 1 and 3 only). Lymph node, mandibular and Lymph node mesenteric tissues will also be collected.
# [3] = single intramuscular dose (90 mg/kg)
compound,measurement,setting,value
"CCCCCCCCCC(=O)O[C@H]1CC[C@@]2(C)C(=CC[C@@H]3[C@@H]2CC[C@]2(C)C(c4cccnc4)=CC[C@@H]32)C1 [Abiraterone Decanoate, abiraterone decanoate]",plasma exposures to abiraterone (Cmax and AUC) compared with oral abiraterone acetate toxicology studies,"[1]; IM administration, cynomolgus monkeys",lower than levels achieved in toxicology studies with abiraterone acetate
same,AUC(0-t),[1]; 20 mg/kg,888 ng·h/mL
same,AUC(0-t),[1]; 60 mg/kg,2040 ng·h/mL
same,AUC(0-t),[1]; 200 mg/kg,13100 ng·h/mL
same,Cmax,[1]; 200 mg/kg,66.6 ng/mL
same,Cmax,"[1]; cynomolgus, 20 mg/kg",6.27 ng/mL
same,AUC(0-t),"[1]; cynomolgus, 60 mg/kg",2190 ng·h/mL
same,Cmax,"[1]; cynomolgus, 60 mg/kg",15.8 ng/mL
same,AUC(0-t),"[1]; cynomolgus, 200 mg/kg",12400 ng·h/mL
same,Cmax,"[1]; cynomolgus, 200 mg/kg",71.3 ng/mL
same,circulating androgen levels (androstenedione and testosterone),[2]; [3],potent reductions
same,levels of progesterone and corticosterone,[2]; [3],increased
same,sustained reduction of testosterone,"[2]; single intramuscular dose, last time point tested",≥ 168 h

# From US11957696B2 (Propella Therapeutics, Inc., priority 2021, dated 2024)
